US20120276015A1, “Optical in vivo Imaging Contrast Agents and Methods of Use” (priority 2005, published 2012)

System: sites of inflammation
Assay: In vivo imaging of collagen-induced arthritis (CIA) mice, qualitative analysis of targeting
Set-up: species or system Balb/c mice
Conditions: inflamed paw
Protocol: Inflammation was modeled by inducing polyarticular collagen-induced arthritis (CIA) in 4-6 week old female Balb/c mice (Charles River). Antibody mediated CIA was induced by intravenous (IV; tail vein) injection of 2 mg Arthrogen-CIA Monoclonal Antibody Blend (Chemicon). Three days after antibody treatment, each mouse received 50 μg Lipopolysaccharide (LPS; Chemicon) intraperitoneally (IP). Seven days after the initial injection, the mice had recovered from the LPS toxicity and symptoms of arthritis were observed. Mice were monitored daily and scored for paw and joint swelling based on the following scale: • 0: Normal • 1: Mild but definite swelling of ankle or wrist or swelling limited to individual digits • 2: Moderate redness and swelling of ankle and wrist • 3: Severe redness and swelling of the entire paw including digits (none of the study mice reached this stage)
Mice were injected with the present contrast agent when they reached level 2, between five and ten days after the LPS injection.
Contrast agents were introduced systemically by IV injection. A 29-guage needle was used to inject 100 μl of 1% solids in water (without buffer salts or saline) containing 2% Pluronic F-127 via the lateral tail vein. The tail was stroked lengthwise three times with an alcohol saturated pad to dilate the blood vessels prior to injection. […]

## BSA conjugate: BSA conjugate used as comparison contrast agent; labeled the whole paw
  image resolution of labeling: labeled the whole paw
